Experimental data as given in PubChem BioAssay AID1963449 (Molecular Pharmacology Branch, DTP, NCI, 2024).
One block for each compound: values may come before it.

Test system: 596521-263-R-J1-PDC complex spheroid growth
Assay: Anticancer human tumor 596521-263-R-J1-PDC patient-derived soft tissue sarcoma cell line growth inhibition [Asc]
Conditions: for IC50: curve of first compound; for viability, T/C: stronger effect = lower value
Method in brief: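 Complex spheroids combining tumor cells with HUVEC endothelial cells and human MSCs, at 37 degrees C, 5% CO2; agents tested alone or combined, half-log dilutions from at or near clinical Cmax, or 10 microM if Cmax unknown.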

[1] = second compound 0.00316 µM, first compound 0.00949 µM
[2] = second compound 0.00316 µM, first compound 0.03 µM
[3] = second compound 0.00316 µM, first compound 0.0949 µM
[4] = second compound 0.00316 µM, first compound 0.3 µM
[5] = second compound 0.01 µM, first compound 0.00949 µM
[6] = second compound 0.01 µM, first compound 0.03 µM
[7] = second compound 0.01 µM, first compound 0.0949 µM
[8] = second compound 0.01 µM, first compound 0.3 µM
[9] = second compound 0.0316 µM, first compound 0.00949 µM
[10] = second compound 0.0316 µM, first compound 0.03 µM
[11] = second compound 0.0316 µM, first compound 0.0949 µM
[12] = second compound 0.0316 µM, first compound 0.3 µM
[13] = second compound 0.1 µM, first compound 0.00949 µM
[14] = second compound 0.1 µM, first compound 0.03 µM
[15] = second compound 0.1 µM, first compound 0.0949 µM
[16] = second compound 0.1 µM, first compound 0.3 µM
[17] = second compound 0.316 µM, first compound 0.00949 µM
[18] = second compound 0.316 µM, first compound 0.03 µM
[19] = second compound 0.316 µM, first compound 0.0949 µM
[20] = second compound 0.316 µM, first compound 0.3 µM
[21] = second compound 1 µM, first compound 0.00949 µM
[22] = second compound 1 µM, first compound 0.03 µM
[23] = second compound 1 µM, first compound 0.0949 µM
[24] = second compound 1 µM, first compound 0.3 µM
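Note: spheroids exposed to compounds for 7 days.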

IC50 (second compound 0.00316 µM): > 10000 nM
IC50 (second compound 0.01 µM): > 10000 nM
IC50 (second compound 0.0316 µM): > 10000 nM
IC50 (second compound 0.1 µM): > 10000 nM
IC50 (second compound 0.316 µM): > 10000 nM
IC50 (second compound 1 µM): > 10000 nM
Compound: C#Cc1c(F)ccc2cc(O)cc(-c3ncc4c(N5CC6CCC(C5)N6)nc(OCC56CCCN5CC(F)C6)nc4c3F)c12 (stereo unspecified) + CNC(C)C(=O)NC1CN(S(=O)(=O)c2cccc(S(=O)(=O)N3CCC4CCC(C(=O)NC(c5ccccc5)c5ccccc5)N4C(=O)C(NC(=O)C(C)NC)C3)c2)CCC2CCC(C(=O)NC(c3ccccc3)c3ccccc3)N2C1=O
viability, T/C (second compound 0.00316 µM, first compound 0.0316 µM): 93.7%
viability, T/C (second compound 0.00316 µM, first compound 0.1 µM): 89.4%
viability, T/C (second compound 0.00316 µM, first compound 0.316 µM): 87.3%
viability, T/C (second compound 0.00316 µM, first compound 1 µM): 105%
viability, T/C (second compound 0.00316 µM, first compound 3.16 µM): 94.6%
viability, T/C (second compound 0.00316 µM, first compound 10 µM): 81.8%
viability, T/C (second compound 0.01 µM, first compound 0.0316 µM): 99.4%
viability, T/C (second compound 0.01 µM, first compound 0.1 µM): 106%
viability, T/C (second compound 0.01 µM, first compound 0.316 µM): 86.7%
viability, T/C (second compound 0.01 µM, first compound 1 µM): 92.9%
viability, T/C (second compound 0.01 µM, first compound 3.16 µM): 97.1%
viability, T/C (second compound 0.01 µM, first compound 10 µM): 64.4%
viability, T/C (second compound 0.0316 µM, first compound 0.0316 µM): 90.2%
viability, T/C (second compound 0.0316 µM, first compound 0.1 µM): 87.1%
viability, T/C (second compound 0.0316 µM, first compound 0.316 µM): 99.6%
viability, T/C (second compound 0.0316 µM, first compound 1 µM): 102%
viability, T/C (second compound 0.0316 µM, first compound 3.16 µM): 90.6%
viability, T/C (second compound 0.0316 µM, first compound 10 µM): 61.1%
viability, T/C (second compound 0.1 µM, first compound 0.0316 µM): 91.5%
viability, T/C (second compound 0.1 µM, first compound 0.1 µM): 70.6%
viability, T/C (second compound 0.1 µM, first compound 0.316 µM): 83.5%
viability, T/C (second compound 0.1 µM, first compound 1 µM): 80%
viability, T/C (second compound 0.1 µM, first compound 3.16 µM): 84%
viability, T/C (second compound 0.1 µM, first compound 10 µM): 72.3%
viability, T/C (second compound 0.316 µM, first compound 0.0316 µM): 80.3%
viability, T/C (second compound 0.316 µM, first compound 0.1 µM): 82.8%
viability, T/C (second compound 0.316 µM, first compound 0.316 µM): 91.2%
viability, T/C (second compound 0.316 µM, first compound 1 µM): 94.8%
viability, T/C (second compound 0.316 µM, first compound 3.16 µM): 78.7%
viability, T/C (second compound 0.316 µM, first compound 10 µM): 62.5%
viability, T/C (second compound 1 µM, first compound 0.0316 µM): 74.7%
viability, T/C (second compound 1 µM, first compound 0.1 µM): 74.5%
viability, T/C (second compound 1 µM, first compound 0.316 µM): 81.2%
viability, T/C (second compound 1 µM, first compound 1 µM): 92.6%
viability, T/C (second compound 1 µM, first compound 3.16 µM): 83.3%
viability, T/C (second compound 1 µM, first compound 10 µM): 58.7%

IC50 (second compound 0.00316 µM): > 3000 nM
IC50 (second compound 0.01 µM): > 3000 nM
IC50 (second compound 0.0316 µM): > 3000 nM
IC50 (second compound 0.1 µM): 2250 nM
IC50 (second compound 0.316 µM): > 3000 nM
IC50 (second compound 1 µM): 1620 nM
Compound: Cc1nc(N2CCC3(CC2)COC(C)C3N)c(CO)nc1Sc1ccnc(N)c1Cl (stereo unspecified) + CNC(C)C(=O)NC1CN(S(=O)(=O)c2cccc(S(=O)(=O)N3CCC4CCC(C(=O)NC(c5ccccc5)c5ccccc5)N4C(=O)C(NC(=O)C(C)NC)C3)c2)CCC2CCC(C(=O)NC(c3ccccc3)c3ccccc3)N2C1=O
viability, T/C [1]: 101%
viability, T/C [2]: 93.3%
viability, T/C [3]: 98.7%
viability, T/C [4]: 97.3%
viability, T/C (second compound 0.00316 µM, first compound 0.949 µM): 75.8%
viability, T/C (second compound 0.00316 µM, first compound 3 µM): 57.6%
viability, T/C [5]: 96.9%
viability, T/C [6]: 87.4%
viability, T/C [7]: 89.8%
viability, T/C [8]: 80.6%
viability, T/C (second compound 0.01 µM, first compound 0.949 µM): 73.1%
viability, T/C (second compound 0.01 µM, first compound 3 µM): 61%
viability, T/C [9]: 102%
viability, T/C [10]: 82.2%
viability, T/C [11]: 94.2%
viability, T/C [12]: 77%
viability, T/C (second compound 0.0316 µM, first compound 0.949 µM): 71.5%
viability, T/C (second compound 0.0316 µM, first compound 3 µM): 50.7%
viability, T/C [13]: 90.5%
viability, T/C [14]: 82.2%
viability, T/C [15]: 77.1%
viability, T/C [16]: 75.5%
viability, T/C (second compound 0.1 µM, first compound 0.949 µM): 63.1%
viability, T/C (second compound 0.1 µM, first compound 3 µM): 45.3%
viability, T/C [17]: 79.2%
viability, T/C [18]: 81.5%
viability, T/C [19]: 78.9%
viability, T/C [20]: 69.8%
viability, T/C (second compound 0.316 µM, first compound 0.949 µM): 67.7%
viability, T/C (second compound 0.316 µM, first compound 3 µM): 49.8%
viability, T/C [21]: 80.3%
viability, T/C [22]: 71.2%
viability, T/C [23]: 72.4%
viability, T/C [24]: 65.7%
viability, T/C (second compound 1 µM, first compound 0.949 µM): 58.5%
viability, T/C (second compound 1 µM, first compound 3 µM): 41.4%

IC50 (second compound 0.00316 µM): 20.4 nM
IC50 (second compound 0.01 µM): 25.6 nM
IC50 (second compound 0.0316 µM): 21.4 nM
IC50 (second compound 0.1 µM): 18.1 nM
IC50 (second compound 0.316 µM): 17.6 nM
IC50 (second compound 1 µM): 12.5 nM
Compound: NC(=O)C(=Cn1cnc(-c2cc(C(F)(F)F)cc(C(F)(F)F)c2)n1)c1cncnc1 + CNC(C)C(=O)NC1CN(S(=O)(=O)c2cccc(S(=O)(=O)N3CCC4CCC(C(=O)NC(c5ccccc5)c5ccccc5)N4C(=O)C(NC(=O)C(C)NC)C3)c2)CCC2CCC(C(=O)NC(c3ccccc3)c3ccccc3)N2C1=O
viability, T/C (second compound 0.00316 µM, first compound 0.000949 µM): 99.8%
viability, T/C (second compound 0.00316 µM, first compound 0.003 µM): 94.3%
viability, T/C [1]: 67.1%
viability, T/C [2]: 42.8%
viability, T/C [3]: 16.1%
viability, T/C [4]: 10.4%
viability, T/C (second compound 0.01 µM, first compound 0.000949 µM): 101%
viability, T/C (second compound 0.01 µM, first compound 0.003 µM): 101%
viability, T/C [5]: 84.3%
viability, T/C [6]: 44.9%
viability, T/C [7]: 14.8%
viability, T/C [8]: 9.7%
viability, T/C (second compound 0.0316 µM, first compound 0.000949 µM): 102%
viability, T/C (second compound 0.0316 µM, first compound 0.003 µM): 93.7%
viability, T/C [9]: 75.8%
viability, T/C [10]: 38.6%
viability, T/C [11]: 18.7%
viability, T/C [12]: 10.5%
viability, T/C (second compound 0.1 µM, first compound 0.000949 µM): 93.6%
viability, T/C (second compound 0.1 µM, first compound 0.003 µM): 89.4%
viability, T/C [13]: 67.5%
viability, T/C [14]: 35.6%
viability, T/C [15]: 14.6%
viability, T/C [16]: 5.92%
viability, T/C (second compound 0.316 µM, first compound 0.000949 µM): 95.3%
viability, T/C (second compound 0.316 µM, first compound 0.003 µM): 76.8%
viability, T/C [17]: 71.3%
viability, T/C [18]: 33.8%
viability, T/C [19]: 14.4%
viability, T/C [20]: 6.61%
viability, T/C (second compound 1 µM, first compound 0.000949 µM): 85.8%
viability, T/C (second compound 1 µM, first compound 0.003 µM): 81.8%
viability, T/C [21]: 56.1%
viability, T/C [22]: 27.3%
viability, T/C [23]: 11.2%
viability, T/C [24]: 7.61%
